We go through 24 compounds from US8138189B2, “Substituted benzene compounds as modulators of the glucocorticoid receptor” (Hoffman-La Roche Inc., priority 2009, dated 2012).

As usually defined, the Ki is a measure of affinity in units of concentration, obtained from inhibition or displacement.

In the experiment the target is T1, full length human recombinant glucocorticoid receptor (Homo sapiens, UniProt P04150).
T1 construct: partially purified full length human recombinant glucocorticoid receptor; purchased Panvera/Invitrogen PV4302
T1 sequence (P04150 1-777): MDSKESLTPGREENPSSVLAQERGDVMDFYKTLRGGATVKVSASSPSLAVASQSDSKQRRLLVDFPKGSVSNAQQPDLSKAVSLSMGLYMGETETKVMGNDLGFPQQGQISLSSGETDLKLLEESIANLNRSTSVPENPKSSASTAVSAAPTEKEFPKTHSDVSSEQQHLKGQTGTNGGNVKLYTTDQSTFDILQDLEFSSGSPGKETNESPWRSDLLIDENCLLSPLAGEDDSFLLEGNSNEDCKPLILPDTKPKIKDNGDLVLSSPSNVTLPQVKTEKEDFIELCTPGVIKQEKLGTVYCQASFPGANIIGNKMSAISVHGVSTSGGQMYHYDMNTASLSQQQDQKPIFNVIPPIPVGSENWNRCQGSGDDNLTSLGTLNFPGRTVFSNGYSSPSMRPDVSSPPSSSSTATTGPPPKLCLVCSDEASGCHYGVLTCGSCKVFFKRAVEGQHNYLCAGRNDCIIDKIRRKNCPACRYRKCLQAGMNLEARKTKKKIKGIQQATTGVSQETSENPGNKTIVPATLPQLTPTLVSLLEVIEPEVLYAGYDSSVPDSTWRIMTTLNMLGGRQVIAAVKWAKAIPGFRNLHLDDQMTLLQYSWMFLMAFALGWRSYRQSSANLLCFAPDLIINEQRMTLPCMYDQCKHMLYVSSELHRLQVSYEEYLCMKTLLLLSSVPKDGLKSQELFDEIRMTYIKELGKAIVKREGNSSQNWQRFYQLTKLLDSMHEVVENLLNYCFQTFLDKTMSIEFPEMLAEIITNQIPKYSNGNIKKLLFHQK
Kind of experiment: Glucocorticoid Receptor Binding Assay (fluorescence polarization competitor assay, Fluormone GS Far Red tracer). In short, it runs like this: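 Partially purified full-length recombinant human GR with a stabilizing coactivator peptide was incubated with Fluormone GS Far Red tracer and serially diluted compound for 3 h at 22 °C in the dark, pH 7.4. Fluorescence polarization was read at 610-660 nm. IC50 came from sigmoidal fitting, and Ki from Cheng-Prusoff.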
On to `C[C@H](c1ccc(Oc2ccc(C(=O)O)cn2)cc1Cl)[C@@](O)(c1ccc(C#N)n1C)C(F)(F)F` (stereo in doubt) [Example 236, 6-{3-Chloro-4-[2-(5-cyano-1-methyl-1H-pyrrol-2-yl)-3,3,3-trifluoro-2-hydroxy-1-methyl-propyl]-phenoxy}-nicotinic acid], for which the Ki came out at 22.3 nM. Next, `C[C@H](c1ccc(Oc2cnc(C(=O)O)cn2)c(Cl)c1Cl)[C@@](O)(c1ccc(=O)n(C)c1)C(F)(F)F` (stereo in doubt) [Example 238, 5-{2,3-Dichloro-4-[3,3,3-trifluoro-2-hydroxy-1-methyl-2-(1-methyl-6-oxo-1,6-dihydro-pyridin-3-yl)-propyl]-phenoxy}-pyrazine-2-carboxylic acid]: 112 nM; `C[C@@H](c1ccc(OC(C)(C)C(=O)O)c(Cl)c1Cl)[C@](O)(c1ccc(=O)n(C)c1)C(F)(F)F` (stereo in doubt) [Example 240, 2-{2,3-Dichloro-4-[3,3,3-trifluoro-2-hydroxy-1-methyl-2-(1-methyl-6-oxo-1,6-dihydro-pyridin-3-yl)-propyl]-phenoxy}-2-methyl-propionic acid]: 82.2 nM. In the case of `COC(=O)c1cnc(Oc2ccc([C@H](C)[C@](O)(c3cc(C)c(=O)n(C)c3)C(F)(F)F)c(Cl)c2)nc1C(F)(F)F` (stereo in doubt) [Example 242, 2-{3-Chloro-4-[2-(1,5-dimethyl-6-oxo-1,6-dihydro-pyridin-3-yl)-3,3,3-trifluoro-2-hydroxy-1-methyl-propyl]-phenoxy}-4-trifluoromethyl-pyrimidine-5-carboxylic acid methyl ester] it was 2.7 nM; in that of `Cc1cc([C@@](O)([C@@H](C)c2ccc(Oc3ncc(C(=O)O)c(C(F)(F)F)n3)cc2Cl)C(F)(F)F)cn(C)c1=O` (stereo in doubt) [Example 243, 2-{3-Chloro-4-[2-(1,5-dimethyl-6-oxo-1,6-dihydro-pyridin-3-yl)-3,3,3-trifluoro-2-hydroxy-1-methyl-propyl]-phenoxy}-4-trifluoromethyl-pyrimidine-5-carboxylic acid], 1.8 nM.

In the case of `COC(=O)c1cnc(Oc2ccc([C@H](C)[C@](O)(c3cc(C)c(=O)n(C)c3)C(F)(F)F)c(Cl)c2)c(Cl)c1` (stereo in doubt) [Example 250, 5-Chloro-6-{3-chloro-4-[2-(1,5-dimethyl-6-oxo-1,6-dihydro-pyridin-3-yl)-3,3,3-trifluoro-2-hydroxy-1-methyl-propyl]-phenoxy}-nicotinic acid methyl ester], the Ki came out at 3 nM.

As to `Cc1cc([C@@](O)([C@@H](C)c2ccc(Oc3ncc(C(=O)O)cc3Cl)cc2Cl)C(F)(F)F)cn(C)c1=O` (stereo in doubt) [Example 251, 5-Chloro-6-{3-chloro-4-[2-(1,5-dimethyl-6-oxo-1,6-dihydro-pyridin-3-yl)-3,3,3-trifluoro-2-hydroxy-1-methyl-propyl]-phenoxy}-nicotinic acid], the inhibition constant (Ki) turned out to be 0.5 nM. As for `Cc1cc([C@@](O)([C@@H](C)c2ccc(Oc3ncc(C(=O)O)cn3)cc2Cl)C(F)(F)F)cn(C)c1=O` (stereo in doubt) [Example 254, 2-{3-Chloro-4-[2-(1,5-dimethyl-6-oxo-1,6-dihydro-pyridin-3-yl)-3,3,3-trifluoro-2-hydroxy-1-methyl-propyl]-phenoxy}-pyrimidine-5-carboxylic acid], the Ki amounted to 9.5 nM. On to `Cc1nc(Oc2ccc([C@H](C)[C@](O)(c3cc(C)c(=O)n(C)c3)C(F)(F)F)c(Cl)c2)ccc1C(=O)O` (stereo in doubt) [Example 255, 6-{3-Chloro-4-[2-(1,5-dimethyl-6-oxo-1,6-dihydro-pyridin-3-yl)-3,3,3-trifluoro-2-hydroxy-1-methyl-propyl]-phenoxy}-2-methyl-nicotinic acid], for which the Ki was found to be 3.6 nM. Turning to `Cc1cnc(C(O)(C(C)c2ccc(OCc3ccc(C(=O)O)cc3)cc2Cl)C(F)(F)F)cn1` (stereo not drawn) [Example 2, 4-{3-Chloro-4-[3,3,3-trifluoro-2-hydroxy-1-methyl-2-(5-methyl-pyrazin-2-yl)-propyl]-phenoxymethyl}-benzoic acid], the Ki turned out to be 21.5 nM. On to `COC(=O)c1cccc(COc2ccc(C(C)C(O)(c3cnc(C)cn3)C(F)(F)F)c(Cl)c2)c1` (stereo not drawn) [Example 3, 3-{3-Chloro-4-[3,3,3-trifluoro-2-hydroxy-1-methyl-2-(5-methyl-pyrazin-2-yl)-propyl]-phenoxymethyl}-benzoic acid methyl ester], for which the Ki worked out at 52.7 nM. In the case of `Cc1cnc(C(O)(C(C)c2ccc(OCc3cccc(C(=O)O)c3)cc2Cl)C(F)(F)F)cn1` (stereo not drawn) [Example 4, 3-{3-Chloro-4-[3,3,3-trifluoro-2-hydroxy-1-methyl-2-(5-methyl-pyrazin-2-yl)-propyl]-phenoxymethyl}-benzoic acid] it was 175 nM; in that of `CCOC(=O)c1ccc(COc2ccc([C@@H](C)[C@@](O)(c3cnc(C)cn3)C(F)(F)F)c(Cl)c2)cc1` [Example 5, 4-{3-Chloro-4-[(1R,2R)-3,3,3-trifluoro-2-hydroxy-1-methyl-2-(5-methyl-pyrazin-2-yl)-propyl]-phenoxymethyl}-benzoic acid ethyl ester], 418 nM. As to `Cc1cnc([C@](O)([C@H](C)c2ccc(OCc3ccc(C(=O)O)cc3)cc2Cl)C(F)(F)F)cn1` [Example 6, 4-{3-Chloro-4-[(1R,2R)-3,3,3-trifluoro-2-hydroxy-1-methyl-2-(5-methyl-pyrazin-2-yl)-propyl]-phenoxymethyl}-benzoic acid], the Ki amounted to 8.2 nM. Next, `COC(=O)c1ccc(OCCOc2ccc(C(C)C(O)(c3cnc(C)cn3)C(F)(F)F)c(Cl)c2)cc1` (stereo not drawn) [Example 9, 4-(2-{3-Chloro-4-[3,3,3-trifluoro-2-hydroxy-1-methyl-2-(5-methyl-pyrazin-2-yl)-propyl]-phenoxy}-ethoxy)-benzoic acid methyl ester]: 119 nM; `Cc1cnc(C(O)(C(C)c2ccc(OCCOc3ccc(C(=O)O)cc3)cc2Cl)C(F)(F)F)cn1` (stereo not drawn) [Example 10, 4-(2-{3-Chloro-4-[3,3,3-trifluoro-2-hydroxy-1-methyl-2-(5-methyl-pyrazin-2-yl)-propyl]-phenoxy}-ethoxy)-benzoic acid]: 307 nM. With `Cc1cc(C(O)(C(C)c2ccc(Oc3ccc(C(=O)O)cc3)cc2Cl)C(F)(F)F)ccn1` (stereo not drawn) [Example 58, 4-{3-Chloro-4-[3,3,3-trifluoro-2-hydroxy-1-methyl-2-(2-methyl-pyridin-4-yl)-propyl]-phenoxy}-benzoic acid], the Ki turned out to be 2.4 nM. Take `Cc1cc(C(O)(C(C)c2ccc(Oc3cccc(C(=O)O)c3)cc2Cl)C(F)(F)F)ccn1` (stereo not drawn) [Example 59, 3-{3-Chloro-4-[3,3,3-trifluoro-2-hydroxy-1-methyl-2-(2-methyl-pyridin-4-yl)-propyl]-phenoxy}-benzoic acid]: the Ki was 11.2 nM.

As to `Cc1cc(C(O)(C(C)c2ccc(-c3cccc(C(=O)O)c3)cc2Cl)C(F)(F)F)ccn1` (stereo not drawn) [Example 61, 3′-Chloro-4′-[3,3,3-trifluoro-2-hydroxy-1-methyl-2-(2-methyl-pyridin-4-yl)-propyl]-biphenyl-3-carboxylic acid], the Ki is 4.9 nM.

Regarding `Cc1cc(C(O)(C(C)c2ccc(-c3ccc(C(=O)O)cn3)cc2Cl)C(F)(F)F)ccn1` (stereo not drawn) [Example 62, 6-{3-Chloro-4-[3,3,3-trifluoro-2-hydroxy-1-methyl-2-(2-methyl-pyridin-4-yl)-propyl]-phenyl}-nicotinic acid], the Ki stood at 335 nM.

In the case of `Cc1cc(C(O)(C(C)c2ccc(-c3cccc(CC(=O)O)c3)cc2Cl)C(F)(F)F)ccn1` (stereo not drawn) [Example 63, {3′-Chloro-4′-[3,3,3-trifluoro-2-hydroxy-1-methyl-2-(2-methyl-pyridin-4-yl)-propyl]-biphenyl-3-yl}-acetic acid], the Ki stood at 6.4 nM. Regarding `Cc1cc(C(O)(C(C)c2ccc(-c3ccc(CC(=O)O)cc3)cc2Cl)C(F)(F)F)ccn1` (stereo not drawn) [Example 64, {3′-Chloro-4′-[3,3,3-trifluoro-2-hydroxy-1-methyl-2-(2-methyl-pyridin-4-yl)-propyl]-biphenyl-4-yl}-acetic acid], the Ki was determined as 66.3 nM. For the compound `Cc1cc(C(O)(C(C)c2ccc(-c3ccc(C(=O)O)nc3)cc2Cl)C(F)(F)F)ccn1` (stereo not drawn) [Example 65, 5-{3-Chloro-4-[3,3,3-trifluoro-2-hydroxy-1-methyl-2-(2-methyl-pyridin-4-yl)-propyl]-phenyl}-pyridine-2-carboxylic acid], the Ki amounted to 214 nM. Next, `Cc1cc(C(O)(C(C)c2ccc(/C=C/c3ccc(C(=O)O)cc3)cc2Cl)C(F)(F)F)ccn1` (stereo not drawn) [Example 66, 4-((E)-2-{3-Chloro-4-[3,3,3-trifluoro-2-hydroxy-1-methyl-2-(2-methyl-pyridin-4-yl)-propyl]-phenyl}-vinyl)-benzoic acid]: 4.4 nM.
